Values of other authors as cited in patent US7316771B2, “Medium for analytic and preparative electrophoresis” (Becton, Dickinson and Company, priority 2000, dated 2008).
Where “and” joins values, the source holds several entries; their conditions need not be identical. Equal entries are not always repeated.

Conditions: substance used as acid in the medium

Structure (SMILES) | pKa (Acid)
Oc1ccncc1 [4-Hydroxy-Pyridine] | 11.2
Oc1ccccn1 [2-Hydroxy-Pyridine] | 11.8
O=C(O)c1ccccn1 [Picolinic Acid] | 5.5
CC(C)C(=O)O [Isobutyric Acid] | 4.5

Same assay, conditions: substance used as acid in the medium; listed as 2-hydroxy pyridine

Structure (SMILES) | pKa (Acid)
Oc1ccccn1 [2-Hydroxy-Pyridine] | 11.6

Same assay, conditions: substance used as base in the medium

Structure (SMILES) | pKa (Base)
CN(CC(=O)O)C(=N)N [Creatine] | 2.7
CCC(N)C(=O)O (centres unmarked) [2-Amino Butyric Acid] | 2.3 and 2.2
NC(=O)c1cccnc1 [Nicotinic Acid Amide] | 3.1
CN1CC(=O)NC1=N [Creatinine] | 4.8
NCC(=O)NCC(=O)O [Glycyl Glycine] | 3.1
C[N+](C)(C)CC(=O)O [Betaine] | 1.8
